In the supplement of paper PMC10307832:

Columns and labels:
Experiment in all cases: relative viability (nuclei count vs DMSO), 5 days (fraction); higher = more cells survive
BAM7 + Palbociclib = compound: CCOC1=CC=CC=C1N=NC2=C(NN(C2=O)C3=NC(=CS3)C4=CC=CC=C4)C [BAM7] + CC(=O)c1c(C)c2cnc(Nc3ccc(N4CCNCC4)cn3)nc2n(C2CCCC2)c1=O [Palbociclib] (partner 0.5 µM)
How it was run: (§1)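 Lung cancer cell lines in 1536-well plates were dosed by pin tool the day after seeding, either with one drug alone or with a fixed anchor-drug dose plus five library-drug doses (not always all listed) in √10 steps. After 5 days, cells were fixed and their nuclei stained in one step (final 0.05% Triton X-100, 1% formaldehyde, 1 ug/ml Hoechst), then counted on 4× images. Relative viability is the nuclei count in treated wells divided by that in vehicle wells. Values are medians of duplicate plates.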

BAM7 + Luminespib = compound: CCOC1=CC=CC=C1N=NC2=C(NN(C2=O)C3=NC(=CS3)C4=CC=CC=C4)C [BAM7] + CCNC(=O)c1noc(-c2cc(C(C)C)c(O)cc2O)c1-c1ccc(CN2CCOCC2)cc1 [Luminespib] (partner 0.01 µM)
How it was run: as §1

BAM7 + AZD7762 = compound: CCOC1=CC=CC=C1N=NC2=C(NN(C2=O)C3=NC(=CS3)C4=CC=CC=C4)C [BAM7] + NC(=O)Nc1cc(-c2cccc(F)c2)sc1C(=O)N[C@H]1CCCNC1 [AZD7762] (partner 0.2 µM)
How it was run: as §1

[1] = compound: CCn1c(-c2nonc2N)nc2c(C#CC(C)(C)O)ncc(OC[C@H]3CCCNC3)c21 + CC(=O)c1c(C)c2cnc(Nc3ccc(N4CCNCC4)cn3)nc2n(C2CCCC2)c1=O [Palbociclib] (partner 0.5 µM)
How it was run: as §1

Cell Line: NCI-H1975
- relative viability (BAM7 + Palbociclib; first compound 0.5 µM): 0.565
- relative viability (BAM7 + Palbociclib; first compound 5 µM): 0.555
- relative viability (BAM7 + Palbociclib; first compound 15.81 µM): 0.519
- relative viability (BAM7 + Palbociclib; first compound 50 µM): 0.652
- relative viability (BAM7 + Luminespib; first compound 0.5 µM): 0.206
- relative viability (BAM7 + Luminespib; first compound 5 µM): 0.219
- relative viability (BAM7 + Luminespib; first compound 15.81 µM): 0.209
- relative viability (BAM7 + Luminespib; first compound 50 µM): 0.189
- relative viability (BAM7 + AZD7762; first compound 0.5 µM): 0.725
- relative viability (BAM7 + AZD7762; first compound 5 µM): 0.763
- relative viability (BAM7 + AZD7762; first compound 15.81 µM): 0.642
- relative viability (BAM7 + AZD7762; first compound 50 µM): 0.632
- relative viability ([1]; first compound 0.01 µM): 0.484
- relative viability ([1]; first compound 0.03162 µM): 0.599
- relative viability ([1]; first compound 0.1 µM): 0.51
- relative viability ([1]; first compound 0.3162 µM): 0.544
- relative viability ([1]; first compound 1 µM): 0.305

Cell Line: NCI-H1993
- relative viability (BAM7 + Palbociclib; first compound 0.5 µM): 0.502
- relative viability (BAM7 + Palbociclib; first compound 5 µM): 0.539
- relative viability (BAM7 + Palbociclib; first compound 15.81 µM): 0.453
- relative viability (BAM7 + Palbociclib; first compound 50 µM): 0.478
- relative viability (BAM7 + Luminespib; first compound 0.5 µM): 0.81
- relative viability (BAM7 + Luminespib; first compound 5 µM): 0.869
- relative viability (BAM7 + Luminespib; first compound 15.81 µM): 0.744
- relative viability (BAM7 + Luminespib; first compound 50 µM): 0.702
- relative viability (BAM7 + AZD7762; first compound 0.5 µM): 0.814
- relative viability (BAM7 + AZD7762; first compound 5 µM): 0.624
- relative viability (BAM7 + AZD7762; first compound 15.81 µM): 0.495
- relative viability (BAM7 + AZD7762; first compound 50 µM): 0.665
- relative viability ([1]; first compound 0.01 µM): 0.55
- relative viability ([1]; first compound 0.03162 µM): 0.642
- relative viability ([1]; first compound 0.1 µM): 0.628
- relative viability ([1]; first compound 0.3162 µM): 0.659
- relative viability ([1]; first compound 1 µM): 0.542

Cell Line: RERF-LC-KJ
- relative viability (BAM7 + Palbociclib; first compound 0.5 µM): 0.953
- relative viability (BAM7 + Palbociclib; first compound 5 µM): 0.876
- relative viability (BAM7 + Palbociclib; first compound 15.81 µM): 0.609
- relative viability (BAM7 + Palbociclib; first compound 50 µM): 0.63
- relative viability (BAM7 + Luminespib; first compound 0.5 µM): 1.19
- relative viability (BAM7 + Luminespib; first compound 5 µM): 0.93
- relative viability (BAM7 + Luminespib; first compound 15.81 µM): 0.726
- relative viability (BAM7 + Luminespib; first compound 50 µM): 0.759
- relative viability (BAM7 + AZD7762; first compound 0.5 µM): 0.992
- relative viability (BAM7 + AZD7762; first compound 5 µM): 1.11
- relative viability (BAM7 + AZD7762; first compound 15.81 µM): 0.855
- relative viability (BAM7 + AZD7762; first compound 50 µM): 0.627
- relative viability ([1]; first compound 0.01 µM): 1.02
- relative viability ([1]; first compound 0.03162 µM): 1.06
- relative viability ([1]; first compound 0.1 µM): 1.02
- relative viability ([1]; first compound 0.3162 µM): 0.915
- relative viability ([1]; first compound 1 µM): 1.05

Cell Line: NCI-H23
- relative viability (BAM7 + Palbociclib; first compound 0.5 µM): 0.612
- relative viability (BAM7 + Palbociclib; first compound 5 µM): 0.479
- relative viability (BAM7 + Palbociclib; first compound 15.81 µM): 0.466
- relative viability (BAM7 + Palbociclib; first compound 50 µM): 0.519
- relative viability (BAM7 + Luminespib; first compound 0.5 µM): 0.218
- relative viability (BAM7 + Luminespib; first compound 5 µM): 0.249
- relative viability (BAM7 + Luminespib; first compound 15.81 µM): 0.225
- relative viability (BAM7 + Luminespib; first compound 50 µM): 0.206
- relative viability (BAM7 + AZD7762; first compound 0.5 µM): 0.165
- relative viability (BAM7 + AZD7762; first compound 5 µM): 0.35
- relative viability (BAM7 + AZD7762; first compound 15.81 µM): 0.287
- relative viability (BAM7 + AZD7762; first compound 50 µM): 0.255
- relative viability ([1]; first compound 0.01 µM): 0.44
- relative viability ([1]; first compound 0.03162 µM): 0.481
- relative viability ([1]; first compound 0.1 µM): 0.52
- relative viability ([1]; first compound 0.3162 µM): 0.575
- relative viability ([1]; first compound 1 µM): 0.55

Cell Line: EMC-BAC-2
- relative viability (BAM7 + Palbociclib; first compound 0.5 µM): 0.512
- relative viability (BAM7 + Palbociclib; first compound 5 µM): 0.519
- relative viability (BAM7 + Palbociclib; first compound 15.81 µM): 0.524
- relative viability (BAM7 + Palbociclib; first compound 50 µM): 0.563
- relative viability (BAM7 + Luminespib; first compound 0.5 µM): 1.13
- relative viability (BAM7 + Luminespib; first compound 5 µM): 1.28
- relative viability (BAM7 + Luminespib; first compound 15.81 µM): 1.12
- relative viability (BAM7 + Luminespib; first compound 50 µM): 1.15
- relative viability (BAM7 + AZD7762; first compound 0.5 µM): 1.15
- relative viability (BAM7 + AZD7762; first compound 5 µM): 0.999
- relative viability (BAM7 + AZD7762; first compound 15.81 µM): 1.22
- relative viability (BAM7 + AZD7762; first compound 50 µM): 1.24
- relative viability ([1]; first compound 0.01 µM): 0.497
- relative viability ([1]; first compound 0.03162 µM): 0.506
- relative viability ([1]; first compound 0.1 µM): 0.504
- relative viability ([1]; first compound 0.3162 µM): 0.5
- relative viability ([1]; first compound 1 µM): 0.471

Cell Line: NCI-H2405
- relative viability (BAM7 + Palbociclib; first compound 0.5 µM): 0.507
- relative viability (BAM7 + Palbociclib; first compound 5 µM): 0.577
- relative viability (BAM7 + Palbociclib; first compound 15.81 µM): 0.546
- relative viability (BAM7 + Palbociclib; first compound 50 µM): 0.553
- relative viability (BAM7 + Luminespib; first compound 0.5 µM): 0.868
- relative viability (BAM7 + Luminespib; first compound 5 µM): 0.77
- relative viability (BAM7 + Luminespib; first compound 15.81 µM): 0.824
- relative viability (BAM7 + Luminespib; first compound 50 µM): 0.68
- relative viability (BAM7 + AZD7762; first compound 0.5 µM): 0.832
- relative viability (BAM7 + AZD7762; first compound 5 µM): 0.862
- relative viability (BAM7 + AZD7762; first compound 15.81 µM): 0.811
- relative viability (BAM7 + AZD7762; first compound 50 µM): 0.758
- relative viability ([1]; first compound 0.01 µM): 0.52
- relative viability ([1]; first compound 0.03162 µM): 0.539
- relative viability ([1]; first compound 0.1 µM): 0.472
- relative viability ([1]; first compound 0.3162 µM): 0.481
- relative viability ([1]; first compound 1 µM): 0.511

Cell Line: NCI-H358
- relative viability (BAM7 + Palbociclib; first compound 5 µM): 0.129
- relative viability (BAM7 + Palbociclib; first compound 15.81 µM): 0.141
- relative viability (BAM7 + Palbociclib; first compound 50 µM): 0.137
- relative viability (BAM7 + Luminespib; first compound 0.5 µM): 0.382
- relative viability (BAM7 + Luminespib; first compound 5 µM): 0.283
- relative viability (BAM7 + Luminespib; first compound 15.81 µM): 0.376
- relative viability (BAM7 + Luminespib; first compound 50 µM): 0.49
- relative viability (BAM7 + AZD7762; first compound 0.5 µM): 0.62
- relative viability (BAM7 + AZD7762; first compound 5 µM): 0.519
- relative viability (BAM7 + AZD7762; first compound 15.81 µM): 0.5
- relative viability (BAM7 + AZD7762; first compound 50 µM): 0.55
- relative viability ([1]; first compound 0.01 µM): 0.139
- relative viability ([1]; first compound 0.03162 µM): 0.147
- relative viability ([1]; first compound 0.1 µM): 0.122
- relative viability ([1]; first compound 0.3162 µM): 0.151
- relative viability ([1]; first compound 1 µM): 0.131
